# According to publication PMC10691210 (Proceedings of the National Academy of Sciences of the …, 2023):
# Tested on: whole plants
# Assay: Herbicidal activity on whole plants
# Type: in vivo
structure (smiles),measurement,value
Cc1nc2c(F)c(F)ccc2cc1Oc1cccc(F)c1C(C)(C)O [ipflufenoquin],herbicidal effectiveness,ineffective
